# Assay: Plasma nucleoside pharmacokinetics after single oral dose in CD-1 mice;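 for Ms Plasma nucleoside AUC: pmol·h/mL plasma normalized to a 1 µmol/kg dose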
# Assay type: in vivo
# Conditions: single oral dose 10 mg/kg in PEG 200
# How it was run: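 Mouse plasma was extracted by acetonitrile/0.2% formic acid protein precipitation using 2′-MeG-D3 or tiapride as internal standard. Nucleoside was quantified by positive-ion LC-MS/MS after C18 gradient separation. Calibration spanned 0.500 (LLOQ) to 200 ng/mL.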
structure (smiles),measurement,value
"CC(C)OC(=O)[C@H](C)NP(=O)(OC[C@H]1O[C@@H](n2ccc(=O)[nH]c2=O)[C@](C)(Cl)[C@@H]1O)Oc1ccccc1 (single isomer, unassigned) [Compound 40ii Diastereomer 2]",Ms Plasma nucleoside AUC,+++ (500 < +++ ≤ 1500)
same,Ms Plasma nucleoside Cmax,+++ (50 < +++ ≤ 100)

# Reference: patent US10513534B2, “2′-chloro nucleoside analogs for HCV infection” (priority 2012, dated 2019)
